Reference: PubChem BioAssay AID2384 (Southern Research Specialized Biocontainment Screening …, 2010)

Each molecule was assayed on S. typhi GFP reporter counter-screen, fluorescence, 4 h (assay: S. typhi counter-screen signal inhibition – fluorescence, 4 h, counter-screen for PhoP regulon inhibitor project, dose response (AID 2384)).
For `COc1cc(CNCCO)cc(Cl)c1OCc1ccc(Cl)cc1Cl`, the IC50 was 22.4 µM.
In the case of `COc1ccc(Nc2c3ccccc3nc3ccccc23)cc1`, the IC50 is reported as 23.7 µM.
`CN(C)CC/C=C1\c2ccccc2Sc2ccc(Cl)cc21` gave an IC50 of 60 µM.
Work on `O=C(Nc1cccc([N+](=O)[O-])c1)Nc1cccs1` yielded an IC50 of 38.9 µM.
In the case of `N#C/C(=N\Nc1ccc([N+](=O)[O-])cc1)C(N)=S`, the IC50 is reported as 108 µM.
For `CC1(C)N=C(N)NC(Nc2ccc(Br)cc2)=N1`, the IC50 was 109 µM.
With `Cc1ncc(CC(=O)n2cc(C(=O)c3cc(Cl)ccc3O)cn2)s1` the IC50 was 82.9 µM.
`O=c1ccc2cc3c([nH]c4ccc(Br)cc43)oc-2c1O` was tested, and the IC50 was 18.2 µM.
With `Oc1c(Cl)cc(CN2CCCCC2)c2cccnc12` the IC50 was 9.15 µM.
`CCCNC1=C(C)C(=O)C2=C(C1=O)C(COC(N)=O)[C@]1(OC)C3NC3CN21` (some centres undefined) showed an IC50 of 21.3 µM.
For `CC1CCN(CCC(=O)Nc2ccc(Cl)cc2)CC1`, the IC50 was 105 µM.
`C[C@H]1c2cccc(O)c2C(O)=C2C(=O)C3(O)C(O)=C(C(N)=O)C(=O)[C@@H](N(C)C)[C@@H]3[C@@H](O)[C@@H]21` (some centres undefined) showed an IC50 of 0.82 µM.
In the case of `COc1cc2c(cc1O)[C@H](Cc1ccc(Oc3cc(C[C@@H]4NCCc5cc(OC)c(O)cc54)ccc3O)cc1)NCC2`, the IC50 is reported as 64 µM.
With `CNCC[C@H](Oc1cccc2ccccc12)c1cccs1` the IC50 was 48.1 µM.
In the case of `Oc1c(CN2CCN(c3ccccn3)CC2)cc(Cl)c2cccnc12`, the IC50 is reported as 17.7 µM.
For `O=C(CN1CC(c2ccccc2)CC1=O)N/N=C/c1cc(Br)ccc1O` (centres undefined), the IC50 was 40.2 µM.
For `O=C(Cc1ccccc1)N/N=C/c1cc(Br)cc(Cl)c1O`, the IC50 was 26.4 µM.
`N/C(=N\OS(=O)(=O)c1ccc2ccccc2c1)c1cccnc1` gave an IC50 of 17.3 µM.
`Cc1ccccc1Nc1cc(C)c2c(O)cccc2n1` showed an IC50 of 21.9 µM.
Molecule `c1ccc(CCN2CN(CCCN3CCOCC3)c3nc4ccccc4n3C2)cc1` has an IC50 of 128 µM.
`O=C(/C=C/c1ccco1)NC(=S)NNC(=O)c1ccco1` gave an IC50 of 90.8 µM.
Molecule `O=c1c2c([nH]c3ccccc13)CCCCC2` has an IC50 of 113 µM.
For `O=C(NNC(=S)NC(=O)c1ccco1)c1ccc(F)cc1`, the IC50 was 130 µM.
`COc1ccc(C2NCCc3c2[nH]c2ccccc32)cc1COc1ccc(F)cc1` (centres undefined) showed an IC50 of 35.1 µM.
For `O=C(Nc1cccc(N=Cc2cc(Cl)cc(Br)c2O)c1)c1ccco1`, the IC50 was 60 µM.
`Oc1ccc(N=Nc2ccc(Br)cc2)c(O)c1` gave an IC50 of 100 µM.
Molecule `O=[N+]([O-])c1cc([N+](=O)[O-])c2cccnc2c1Oc1ccccc1O` has an IC50 of 41.7 µM.
`Oc1ccc(C[C@@H]2CNCCN2CCC23CC4CC(CC(C4)C2)C3)cc1` was tested, and the IC50 was 40.6 µM.
`CCc1cccc2c1Sc1ccccc1CC2N1CCNCC1` (centres undefined) was tested, and the IC50 was 39.3 µM.
For `CN(C)c1ccc(/C=C/c2ccc3ccccc3[n+]2C)cc1`, the IC50 was 19.1 µM.
Work on `Cc1cc(N=Nc2ccccc2)c(NCC(O)C(O)C(O)CO)cc1C` (centres undefined) yielded an IC50 of 144 µM.
Molecule `O=C(Oc1ccccc1)c1cc2ccccc2o1` has an IC50 of 97 µM.
In the case of `O=[N+]([O-])c1cc(/C=N/Nc2nc3ccccc3[nH]2)c(O)cc1O`, the IC50 is reported as 17.8 µM.
Molecule `Cc1cccc(OCC(O)Cn2c(=N)n(CCN3CCCCC3)c3ccccc32)c1` (centres undefined) has an IC50 of 10.4 µM.
In the case of `CN1CCN(C2=Cc3ccccc3Sc3cc(F)c(Cl)cc32)CC1`, the IC50 is reported as 27 µM.
Molecule `C#CCOCCOCCOCCNc1nc(N2CCN(C(=O)CCCCCCCCCCNC(=O)Cn3cc(C[C@@H](C)O)nn3)CC2)nc(N2CCN(C(=O)CCCCCCCCCCNC(=O)[C@@H]([C@H](C)CC)n3cc(CCCCCN)nn3)CC2)n1` has an IC50 of 141 µM.
With `CCn1nc(C(=O)O)c(=O)c2cc3c(cc21)OCO3` the IC50 was 84.1 µM.
`CCCCCNc1nc(N2CCCC2)c2c(c1C#N)CCN(C)C2` was tested, and the IC50 was 36.3 µM.
`COc1ccc(CNc2ncnc3c2[nH]c2ccccc23)cc1` gave an IC50 of 150 µM.
`C#CCOCCOCCOCCNc1nc(N2CCN(C(=O)[C@H](CCCCN)n3cc([C@@H](N)CC(C)C)nn3)CC2)nc(N2CCN(C(=O)[C@H](Cc3cc4ccccc4[nH]3)n3cc([C@@H](N)Cc4ccc(O)cc4)nn3)CC2)n1` was tested, and the IC50 was 26.9 µM.
Molecule `CCCCCCCNC(=O)C1(CC2CC(c3cccc(Br)c3)=NO2)CCNCC1` (centres undefined) has an IC50 of 39.8 µM.
Molecule `CC(NCC(O)COCCC12CC3CC(CC(C3)C1)C2)c1ccccc1` (centres undefined) has an IC50 of 23.1 µM.
In the case of `Cc1ccc(-c2c[n+](Cc3ccc(Cl)c(Cl)c3)c3n2CCC3)cc1`, the IC50 is reported as 25.8 µM.
`Cc1ccc2nc(N(CCCN(C)C)C(=O)c3sc4ccccc4c3Cl)sc2c1` was tested, and the IC50 was 24.3 µM.
`CSc1nc2ccc(Cl)cc2[nH]1` showed an IC50 of 73.6 µM.
`CCC[C@H](CN[C@@H](CNC)[C@H](C)CC)NCCc1cc(C(F)(F)F)cc(C(F)(F)F)c1` was tested, and the IC50 was 25.1 µM.
`Clc1cccc(/C=N\Nc2nccs2)c1` showed an IC50 of 15.8 µM.
`N=c1n(CCN2CCCCC2)c2ccccc2n1CC(O)c1ccc(Cl)c(Cl)c1` (centres undefined) was tested, and the IC50 was 19.8 µM.
`O=C(O)c1cccc(N2C(=O)CSC2=S)c1` showed an IC50 of 68 µM.
`Nc1nc2ccccc2n1Cc1ccc(Cl)c(Cl)c1` showed an IC50 of 74.7 µM.
Work on `O=C(Nc1nc(-c2ccccn2)cs1)c1ccc(Cl)s1` yielded an IC50 of 21.3 µM.
Molecule `Cc1nc2ccccc2c(N)c1C(=O)/C=C/c1ccccc1` has an IC50 of 101 µM.
`O=C(N/N=C/c1ccc([N+](=O)[O-])s1)c1cccnc1` gave an IC50 of 34.7 µM.
With `O=C(Nc1nccs1)c1ccc(Cl)cc1[N+](=O)[O-]` the IC50 was 97.6 µM.
